Experimental findings from patent publication US20260315492A1, “5,6-FUSED BICYCLIC AMIDES AND COMPOSITIONS FOR USE AS 15-PROSTAGLANDIN DEHYDROGENASE MODULATORS” (AMGEN INC., priority 2023, published 2026) are described below.

What is called IC50 is the concentration that gives 50% inhibition.

This assay addresses T1, human recombinant 15-PGDH (Homo sapiens, UniProt P15428).
T1 sequence (P15428 1-266): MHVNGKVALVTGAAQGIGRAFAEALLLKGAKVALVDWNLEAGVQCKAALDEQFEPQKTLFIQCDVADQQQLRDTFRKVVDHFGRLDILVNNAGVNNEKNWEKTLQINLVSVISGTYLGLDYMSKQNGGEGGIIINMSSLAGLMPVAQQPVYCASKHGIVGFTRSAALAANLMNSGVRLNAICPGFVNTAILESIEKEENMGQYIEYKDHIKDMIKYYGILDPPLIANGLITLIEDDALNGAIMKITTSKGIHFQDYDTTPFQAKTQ
The experiment in a line: Inhibition of recombinant 15-PGDH enzymatic activity (NADH quantification after addition of PGE2 and NAD+). It counts as biochemical. The conditions noted are these: recombinant 15-PGDH; 15 min pre-incubation, 60-minute reaction, room temperature, pH 7.5; PGE2 and NAD+; read-out: PGDH-Lumi IC50. As for the experimental part: The compound dose-response of its inhibition of 15-PGDH activity was determined in human recombinant 15-PGDH enzymatical assays. These assays measured 15-PGDH enzymatic activity by quantifying the amount of NADH produced during a 60-minute reaction initiated by the addition of PGE2 and NAD+. Under the conditions of these experiments, the increase of NADH signal upon oxidation of PGE2 and reduction of NAD+ was linearly proportional to 15-PGDH enzymatic activity. The recombinant human, mouse, rat and dog 15-PGDH enzymatic assays were performed in a 25 μL volume of reaction buffer containing 50 mM Tris, pH 7.5, 0.01% Tween-20 and 100 μM DTT in a 384-well microtiter plate. In concentration-response experiments with tested compounds, 22 concentrations from 2-fold serial dilutions in DMSO were pre-incubated with 15-PGDH for 15 minutes at room temperature. Then, PGE2 and ß-NAD+ were added to initiate the 15-PGDH reaction. After 60 minutes at room temperature, the reaction was quenched and NADH signal was measured using a microtiter plate reader.
The following data (Table 11-1) provides the IC50 of each compound for inhibiting enzymatic activity of recombinant 15-PGDH in the assay described above.

Molecules are shown by their SMILES.

For the compound `C[C@H]1COCCN1C(=O)c1cc2ccc(-c3cnc4nn(C)nc4c3)nc2s1` [Compound B43S, ((3S)-3-methyl-4-morpholinyl)(6-(2-methyl-2H-[1,2,3]triazolo[4,5-b]pyridin-6-yl)thieno[2,3-b]pyridin-2-yl)methanone], the concentration for half-maximal inhibition (IC50) was 23.4 nM. With `C[C@@H]1COCCN1C(=O)c1cc2ccc(-c3cnc4c(c3)nnn4C)nc2s1` [Compound B44R, ((3R)-3-methyl-4-morpholinyl)(6-(3-methyl-3H-[1,2,3]triazolo[4,5-b]pyridin-6-yl)thieno[2,3-b]pyridin-2-yl)methanone], the concentration for half-maximal inhibition (IC50) was found to be 56.7 nM. In the case of `C[C@H]1COCCN1C(=O)c1cc2ccc(-c3cnc4c(c3)nnn4C)nc2s1` [Compound B44S, ((3S)-3-methyl-4-morpholinyl)(6-(3-methyl-3H-[1,2,3]triazolo[4,5-b]pyridin-6-yl)thieno[2,3-b]pyridin-2-yl)methanone], the IC50 is 54.2 nM.

Take `Cn1cc2cc(-c3ccc4cc(C(=O)N5CCOCC56CC6)sc4n3)cnc2n1` [Compound B45, (6-(2-methyl-2H-pyrazolo[3,4-b]pyridin-5-yl)thieno[2,3-b]pyridin-2-yl)(7-oxa-4-azaspiro[2.5]octan-4-yl)methanone]: the concentration for half-maximal inhibition (IC50) came out at 46.1 nM.

As to `Cn1cc2cc(-c3ccc4cc(C(=O)N5CCOC(C(F)(F)F)C5)sc4n3)cnc2n1` (stereo not shown) [Compound B46, (6-(2-methyl-2H-pyrazolo[3,4-b]pyridin-5-yl)thieno[2,3-b]pyridin-2-yl)(2-(trifluoromethyl)-4-morpholinyl)methanone], the half-inhibitory concentration (IC50) is 2.6 nM. For the compound `Cn1cc2cc(-c3ccc4cc(C(=O)N5CCOC6(CC6)C5)sc4n3)cnc2n1` [Compound B47, (6-(2-methyl-2H-pyrazolo[3,4-b]pyridin-5-yl)thieno[2,3-b]pyridin-2-yl)(4-oxa-7-azaspiro[2.5]octan-7-yl)methanone], the half-inhibitory concentration (IC50) worked out at 0.712 nM.

As for `C[C@@H]1COCCN1C(=O)c1cc2ccc(-c3ccc(=O)[nH]c3)nc2s1` [Compound B48R, 5-(2-(((3R)-3-methyl-4-morpholinyl)carbonyl)thieno[2,3-b]pyridin-6-yl)-2(1H)-pyridinone], the half-inhibitory concentration (IC50) was 1030 nM. For the compound `C[C@H]1COCCN1C(=O)c1cc2ccc(-c3ccc(=O)[nH]c3)nc2s1` [Compound B48S, 5-(2-(((3S)-3-methyl-4-morpholinyl)carbonyl)thieno[2,3-b]pyridin-6-yl)-2(1H)-pyridinone], the IC50 was found to be 986 nM. Then `O=C(c1cc2ccc(-c3ccc4ncccc4c3)nc2s1)N1CCOCC1` [Compound B49, 4-morpholinyl(6-(6-quinolinyl)thieno[2,3-b]pyridin-2-yl)methanone], with 77.8 nM. Take `Cn1cnc2ncc(-c3ccc4cc(C(=O)N5CCOCC5)sc4n3)cc21` [Compound B50, (6-(1-methyl-1H-imidazo[4,5-b]pyridin-6-yl)thieno[2,3-b]pyridin-2-yl)(4-morpholinyl)methanone]: the IC50 worked out at 2.64 nM.

Take `Cn1cc2cc(-c3ccc4cc(C(=O)N5CCOCC56COC6)sc4n3)cnc2n1` [Compound B51, 2,8-dioxa-5-azaspiro[3.5]nonan-5-yl(6-(2-methyl-2H-pyrazolo[3,4-b]pyridin-5-yl)thieno[2,3-b]pyridin-2-yl)methanone]: the 50% inhibitory concentration (IC50) stood at 340 nM. In the case of `Cn1cc2cc(-c3ccc4cc(C(=O)N5CCOC6CC65)sc4n3)cnc2n1` (stereo not shown) [Compound B53, (6-(2-methyl-2H-pyrazolo[3,4-b]pyridin-5-yl)thieno[2,3-b]pyridin-2-yl)(2-oxa-5-azabicyclo[4.1.0]heptan-5-yl)methanone], the IC50 was 1.81 nM.

On to `Cn1nnc2cc(-c3ccc4cc(C(=O)N5CCOCC5)sc4n3)cnc21` [Compound B54, (6-(3-methyl-3H-[1,2,3]triazolo[4,5-b]pyridin-6-yl)thieno[2,3-b]pyridin-2-yl)(4-morpholinyl)methanone], for which the IC50 stood at 16.1 nM.

`C[C@H]1COCCN1C(=O)c1cc2ccc(-c3ccc4ncccc4c3)nc2s1` [Compound B55S, ((3S)-3-methyl-4-morpholinyl)(6-(6-quinolinyl)thieno[2,3-b]pyridin-2-yl)methanone]: the IC50 was 144 nM. Then `O=C(c1cc2ccc(-c3cnc4nccnc4c3)nc2s1)N1CCOCC1` [Compound B56, 4-morpholinyl(6-(pyrido[2,3-b]pyrazin-7-yl)thieno[2,3-b]pyridin-2-yl)methanone], with 5.91 nM; and `C[C@H]1COCCN1C(=O)c1cc2ccc(-c3cnc4nccnc4c3)nc2s1` [Compound B57S, ((3S)-3-methyl-4-morpholinyl)(6-(pyrido[2,3-b]pyrazin-7-yl)thieno[2,3-b]pyridin-2-yl)methanone], with 10.3 nM. For `Cn1ccc2cc(-c3ccc4cc(C(=O)N5CCOCC5)sc4n3)cnc2c1=O` [Compound B58, 7-methyl-3-(2-(4-morpholinylcarbonyl)thieno[2,3-b]pyridin-6-yl)-1,7-naphthyridin-8(7H)-one] the value was 8.15 nM; for `Cn1cc2cc(-c3ccc4cc(C(=O)N5CCOCC56CCC6)sc4n3)cnc2n1` [Compound B59, (6-(2-methyl-2H-pyrazolo[3,4-b]pyridin-5-yl)thieno[2,3-b]pyridin-2-yl)(8-oxa-5-azaspiro[3.5]nonan-5-yl)methanone], 46.4 nM; for `C[C@@H]1COCCN1C(=O)c1cc2ccc(-c3cnc4nccnc4c3)nc2s1` [Compound B60R, ((3R)-3-methyl-4-morpholinyl)(6-(pyrido[2,3-b]pyrazin-7-yl)thieno[2,3-b]pyridin-2-yl)methanone], 10.6 nM. For `C[C@@H]1COCCN1C(=O)c1cc2ccc(-c3ccc4ncccc4c3)nc2s1` [Compound B61R, ((3R)-3-methyl-4-morpholinyl)(6-(6-quinolinyl)thieno[2,3-b]pyridin-2-yl)methanone] the value was 189 nM; for `C[C@@H]1COCCN1C(=O)c1cc2ccc(-c3cnc4c(=O)n(C)ccc4c3)nc2s1` [Compound B62R, 7-methyl-3-(2-(((3R)-3-methyl-4-morpholinyl)carbonyl)thieno[2,3-b]pyridin-6-yl)-1,7-naphthyridin-8(7H)-one], 4260 nM; for `C[C@H]1COCCN1C(=O)c1cc2ccc(-c3cnc4c(=O)n(C)ccc4c3)nc2s1` [Compound B62S, 7-methyl-3-(2-(((3S)-3-methyl-4-morpholinyl)carbonyl)thieno[2,3-b]pyridin-6-yl)-1,7-naphthyridin-8(7H)-one], 39.2 nM. In the case of `C[C@@H]1COCCN1C(=O)c1cc2ccc(-c3cnc4ncn(C)c4c3)nc2s1` [Compound B63R, (6-(1-methyl-1H-imidazo[4,5-b]pyridin-6-yl)thieno[2,3-b]pyridin-2-yl)((3R)-3-methyl-4-morpholinyl)methanone], the IC50 turned out to be 5.17 nM.

Take `C[C@H]1COCCN1C(=O)c1cc2ccc(-c3cnc4ncn(C)c4c3)nc2s1` [Compound B63S, (6-(1-methyl-1H-imidazo[4,5-b]pyridin-6-yl)thieno[2,3-b]pyridin-2-yl)((3S)-3-methyl-4-morpholinyl)methanone]: the IC50 came out at 5.68 nM. In the case of `Cn1nccc1-c1nc(-c2cnc(=O)[nH]c2)nc2sc(C(=O)N3CCC(F)(F)CC3)cc12` [Compound C38, 5-(6-((4,4-difluoro-1-piperidinyl)carbonyl)-4-(1-methyl-1H-pyrazol-5-yl)thieno[2,3-d]pyrimidin-2-yl)-2(1H)-pyrimidinone], the IC50 stood at 16 nM. In the case of `Cn1cc2cc(-c3cnc4cc(C(=O)N5CCC(F)(F)CC5)sc4n3)cnc2n1` [Compound C39], the IC50 amounted to 1.38 nM. In the case of `Cn1cc2cc(-c3cnc4sc(C(=O)N5CCC(F)(F)CC5)cc4n3)cnc2n1` [Compound C40, (4,4-difluoro-1-piperidinyl)(2-(2-methyl-2H-pyrazolo[3,4-b]pyridin-5-yl)thieno[2,3-b]pyrazin-6-yl)methanone], the half-maximal inhibitory concentration (IC50) was found to be 0.726 nM. For `Cn1cc2cc(-c3ccc4sc(C(=O)N5CCC(F)(F)CC5)cc4n3)cnc2n1` [Compound C41, (4,4-difluoro-1-piperidinyl)(5-(2-methyl-2H-pyrazolo[3,4-b]pyridin-5-yl)thieno[3,2-b]pyridin-2-yl)methanone], the IC50 amounted to 0.429 nM.

Take `Cn1cc2cc(-c3ccc4sc(C(=O)N5CCCCC5)cc4n3)cnc2n1` [Compound C42, (5-(2-methyl-2H-pyrazolo[3,4-b]pyridin-5-yl)thieno[3,2-b]pyridin-2-yl)(1-piperidinyl)methanone]: the 50% inhibitory concentration (IC50) turned out to be 0.394 nM. Turning to `Cn1cc2cc(-c3ccc4sc(C(=O)N5CCCC(F)(F)C5)cc4n3)cnc2n1` [Compound C43, (3,3-difluoro-1-piperidinyl)(5-(2-methyl-2H-pyrazolo[3,4-b]pyridin-5-yl)thieno[3,2-b]pyridin-2-yl)methanone], the concentration for half-maximal inhibition (IC50) turned out to be 0.375 nM. Regarding `Cn1cc2cc(-c3ccc4sc(C(=O)N5CCOCC5)cc4n3)cnc2n1` [Compound C44, (5-(2-methyl-2H-pyrazolo[3,4-b]pyridin-5-yl)thieno[3,2-b]pyridin-2-yl)(4-morpholinyl)methanone], the IC50 was determined as 4.51 nM.
